Data as given in patent publication US11104682B2, “Salts of TAM inhibitors” (Incyte Corporation, priority 2017, dated 2021).
Structures can show the parent of a compound that is named as a salt. Blank lines part the entries; values can stand above or below the molecule they belong to.

Legend:
[1] = Solubility of Compound I maleate salt in solvents (saturated solution, HPLC); format: physicochemical; conditions: thermodynamic from solid; for solubility at 48 h: 25 °C, 25±1° C.; for solubility at 24 h: 50 °C, 50±1° C.
Tyro3 = Tyro3 (Homo sapiens (Human), UniProt Q06418); assay: TAM Enzymatic Assay (HTRF), Tyro3; format: biochemical; conditions: 0.366 nM Tyro3, ATP
Procedure: (§1) The kinase assay buffer contained 50 mM HEPES, pH7.5, 10 mM MgCl2, 1 mM EGTA, 0.01% NP-40 and 2 mM DTT. 0.1 ul test compounds dissolved in DMSO were transferred from compound plates to white 384-well assay plates (Greiner […] plates). The final concentration of DMSO was 1.25%. Enzyme solutions of 5.1 nM phosphor-Axl, or 0.0625 nM c-Mer (Carna Biosciences, 08-108), or 0.366 nM Tyro3 (Life Technologies, PR7480A) were prepared in assay buffer. A 1 mM stock solution of peptide substrate Biotin-[…]-amide SEQ ID NO: 1 (Quality Controlled Biochemicals, MA) dissolved in DMSO was diluted to 1 uM in assay buffer containing 2000 uM ATP. 4 ul enzyme solution (or assay buffer for the enzyme blank) was added to the appropriate wells in each plate, and then 4 ul/well substrate solution was added to initiate the reaction. The plate was protected from light and incubated at room temperature for 60 min. […] The plate was incubated for 1 h at room temperature, and HTRF (homogenous time resolved fluorescence) signal was measured on a PHERAstar FS plate reader (BMG labtech). Percentage of inhibition was calculated for each concentration and IC50 value was generated from curve fitting with GraphPad Prism software.

Axl = Axl (Homo sapiens (Human), UniProt P30530); assay: TAM Enzymatic Assay (HTRF), phosphor-Axl; format: biochemical; conditions: 5.1 nM phosphor-Axl, ATP
Procedure: Autophosphorylation of Axl was carried out by incubating the recombinant Axl protein (Life Technologies, PV4275) in buffer containing 50 mM Tris, pH7.5, 0.2 mg/ml Axl, 5 mM ATP, 20 mM MgCl2 and 2 mM DTT at room temperature for 1 hour.
as §1, with “reaction.” for “reaction. The plate was protected from light and incubated at room temperature for 60 min.”

c-Mer = c-Mer (Homo sapiens (Human), UniProt Q12866); assay: TAM Enzymatic Assay (HTRF), c-Mer; format: biochemical; conditions: 0.0625 nM c-Mer, ATP
Procedure: as §1

[2] = organic solvent or mixture, solvent 1,4-Dioxane
[3] = organic solvent or mixture, solvent 1-Propanol
[4] = organic solvent or mixture, solvent 2-Methoxyethanol
[5] = organic solvent or mixture, solvent Acetone
[6] = organic solvent or mixture, solvent Chloroform
[7] = organic solvent or mixture, solvent DMF
[8] = organic solvent or mixture, solvent DMSO
[9] = organic solvent or mixture, solvent Dichloromethane
[10] = organic solvent or mixture, solvent EtOAc
[11] = organic solvent or mixture, solvent EtOH
[12] = organic solvent or mixture, solvent Ethyl formate
[13] = organic solvent or mixture, solvent IPA
[14] = organic solvent or mixture, solvent IPAc
[15] = organic solvent or mixture, solvent MEK
[16] = organic solvent or mixture, solvent MIBK
[17] = organic solvent or mixture, solvent MTBE
[18] = organic solvent or mixture, solvent MeCN
[19] = organic solvent or mixture, solvent Methanol
[20] = organic solvent or mixture, solvent THF
[21] = organic solvent or mixture, solvent Toluene
[22] = organic solvent or mixture, solvent n-BuOH

Chain of Axl (P30530 26-894): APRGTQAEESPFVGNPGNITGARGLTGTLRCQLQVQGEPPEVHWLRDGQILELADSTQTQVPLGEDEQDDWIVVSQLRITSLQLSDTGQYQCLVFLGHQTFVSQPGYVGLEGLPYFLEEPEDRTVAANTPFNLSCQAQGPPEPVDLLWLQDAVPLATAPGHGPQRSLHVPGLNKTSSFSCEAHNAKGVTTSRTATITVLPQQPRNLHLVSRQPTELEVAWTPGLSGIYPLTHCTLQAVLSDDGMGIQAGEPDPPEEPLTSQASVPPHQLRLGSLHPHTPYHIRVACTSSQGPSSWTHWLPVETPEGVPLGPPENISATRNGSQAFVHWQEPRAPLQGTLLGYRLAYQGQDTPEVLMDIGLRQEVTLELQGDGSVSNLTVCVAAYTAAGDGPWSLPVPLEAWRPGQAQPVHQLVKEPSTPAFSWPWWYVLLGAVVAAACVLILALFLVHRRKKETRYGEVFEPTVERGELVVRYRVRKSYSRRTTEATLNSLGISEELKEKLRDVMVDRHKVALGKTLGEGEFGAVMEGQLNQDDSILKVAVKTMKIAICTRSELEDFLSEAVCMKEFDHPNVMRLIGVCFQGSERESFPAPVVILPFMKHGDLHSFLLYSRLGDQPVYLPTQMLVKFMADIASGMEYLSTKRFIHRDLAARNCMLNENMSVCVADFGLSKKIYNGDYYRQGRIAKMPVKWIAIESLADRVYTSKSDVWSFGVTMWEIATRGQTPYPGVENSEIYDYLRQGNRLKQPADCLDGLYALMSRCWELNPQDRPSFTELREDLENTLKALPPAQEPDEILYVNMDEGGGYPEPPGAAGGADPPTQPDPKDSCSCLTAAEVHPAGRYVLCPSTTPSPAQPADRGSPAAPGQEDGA
Chain of c-Mer (Q12866 21-999): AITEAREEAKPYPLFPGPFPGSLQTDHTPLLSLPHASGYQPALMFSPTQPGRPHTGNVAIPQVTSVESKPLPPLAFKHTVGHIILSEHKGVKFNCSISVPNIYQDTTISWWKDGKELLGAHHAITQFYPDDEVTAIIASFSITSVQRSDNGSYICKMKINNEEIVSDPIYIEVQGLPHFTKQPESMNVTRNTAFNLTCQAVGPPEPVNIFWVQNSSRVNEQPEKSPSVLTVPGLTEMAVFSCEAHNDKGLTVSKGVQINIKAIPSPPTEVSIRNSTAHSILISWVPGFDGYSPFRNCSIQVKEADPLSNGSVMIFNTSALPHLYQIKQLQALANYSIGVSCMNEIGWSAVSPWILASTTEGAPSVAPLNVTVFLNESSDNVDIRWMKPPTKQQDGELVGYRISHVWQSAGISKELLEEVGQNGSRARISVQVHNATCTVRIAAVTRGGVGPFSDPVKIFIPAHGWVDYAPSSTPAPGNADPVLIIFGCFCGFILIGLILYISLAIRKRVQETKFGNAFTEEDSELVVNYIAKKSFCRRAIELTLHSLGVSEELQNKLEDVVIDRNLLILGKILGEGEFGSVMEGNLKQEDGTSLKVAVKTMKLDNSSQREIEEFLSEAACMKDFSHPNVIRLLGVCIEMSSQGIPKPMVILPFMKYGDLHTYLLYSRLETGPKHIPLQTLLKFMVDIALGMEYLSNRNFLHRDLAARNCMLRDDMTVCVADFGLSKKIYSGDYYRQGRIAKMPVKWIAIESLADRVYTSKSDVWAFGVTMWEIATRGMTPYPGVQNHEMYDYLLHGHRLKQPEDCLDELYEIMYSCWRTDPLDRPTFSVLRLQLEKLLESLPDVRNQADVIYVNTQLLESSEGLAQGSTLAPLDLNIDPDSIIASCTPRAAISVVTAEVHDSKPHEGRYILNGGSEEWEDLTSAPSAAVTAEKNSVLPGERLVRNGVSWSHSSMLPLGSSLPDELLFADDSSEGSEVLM
Chain of Tyro3 (Q06418 41-890): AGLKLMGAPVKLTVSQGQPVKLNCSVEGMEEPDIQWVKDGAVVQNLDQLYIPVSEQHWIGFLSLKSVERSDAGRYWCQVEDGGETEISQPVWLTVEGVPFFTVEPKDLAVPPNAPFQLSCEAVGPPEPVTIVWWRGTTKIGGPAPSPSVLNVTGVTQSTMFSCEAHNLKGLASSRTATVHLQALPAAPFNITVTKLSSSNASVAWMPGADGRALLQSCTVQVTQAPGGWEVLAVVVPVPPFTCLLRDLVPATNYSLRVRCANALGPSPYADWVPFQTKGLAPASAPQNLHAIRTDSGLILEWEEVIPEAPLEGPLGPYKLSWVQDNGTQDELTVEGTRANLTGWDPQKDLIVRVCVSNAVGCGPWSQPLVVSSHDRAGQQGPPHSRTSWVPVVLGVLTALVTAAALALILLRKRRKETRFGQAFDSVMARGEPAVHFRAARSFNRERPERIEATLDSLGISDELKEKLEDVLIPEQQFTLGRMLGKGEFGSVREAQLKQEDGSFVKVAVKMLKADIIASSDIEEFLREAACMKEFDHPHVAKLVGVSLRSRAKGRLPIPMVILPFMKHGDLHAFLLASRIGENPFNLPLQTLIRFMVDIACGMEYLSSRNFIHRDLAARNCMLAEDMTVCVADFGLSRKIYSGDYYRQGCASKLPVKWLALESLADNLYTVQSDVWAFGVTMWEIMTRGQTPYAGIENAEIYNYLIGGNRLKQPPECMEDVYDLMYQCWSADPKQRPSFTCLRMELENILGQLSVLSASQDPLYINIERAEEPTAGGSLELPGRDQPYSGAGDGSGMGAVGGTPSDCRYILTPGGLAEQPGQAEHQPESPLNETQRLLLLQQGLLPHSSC

solubility at 48 h [1, 2]: 2310 µg/mL
solubility at 48 h [1, 3]: 440 µg/mL
solubility at 48 h ([1]; organic solvent or mixture, solvent 2% DCM/98% MeOH (V/V)): 1460 µg/mL
solubility at 48 h [1, 4]: 5960 µg/mL
solubility at 48 h ([1]; organic solvent or mixture, solvent 10% DCM/90% MeOH (V/V)): 1880 µg/mL
solubility at 48 h [1, 5]: 1680 µg/mL
solubility at 48 h [1, 6]: 6120 µg/mL
solubility at 48 h ([1]; organic solvent or mixture, solvent DCM/MeOH(2/1)): > 50000 µg/mL
solubility at 48 h [1, 7]: > 50000 µg/mL
solubility at 48 h [1, 8]: > 50000 µg/mL
solubility at 48 h [1, 9]: 24400 µg/mL
solubility at 48 h [1, 10]: 180 µg/mL
solubility at 48 h [1, 11]: 650 µg/mL
solubility at 48 h [1, 12]: 680 µg/mL
solubility at 48 h [1, 13]: 160 µg/mL
solubility at 48 h [1, 14]: 270 µg/mL
solubility at 48 h [1, 15]: 280 µg/mL
solubility at 48 h [1, 16]: 430 µg/mL
solubility at 48 h [1, 17]: 80 µg/mL
solubility at 48 h [1, 18]: 280 µg/mL
solubility at 48 h [1, 19]: 1640 µg/mL
solubility at 48 h [1, 20]: 920 µg/mL
solubility at 48 h [1, 21]: 180 µg/mL
solubility at 48 h [1, 22]: 210 µg/mL
solubility at 48 h ([1]; solvent Water): 20 µg/mL
solubility at 24 h [1, 2]: 4620 µg/mL
solubility at 24 h [1, 3]: 1310 µg/mL
solubility at 24 h [1, 4]: 14800 µg/mL
solubility at 24 h [1, 5]: 3050 µg/mL
solubility at 24 h [1, 6]: 13700 µg/mL
solubility at 24 h [1, 7]: > 50000 µg/mL
solubility at 24 h [1, 8]: > 50000 µg/mL
solubility at 24 h [1, 9]: 33700 µg/mL
solubility at 24 h [1, 10]: 400 µg/mL
solubility at 24 h [1, 11]: 1930 µg/mL
solubility at 24 h [1, 12]: 990 µg/mL
solubility at 24 h [1, 13]: 680 µg/mL
solubility at 24 h [1, 14]: 330 µg/mL
solubility at 24 h [1, 15]: 2190 µg/mL
solubility at 24 h [1, 16]: 740 µg/mL
solubility at 24 h [1, 17]: 100 µg/mL
solubility at 24 h [1, 18]: 680 µg/mL
solubility at 24 h [1, 19]: 3090 µg/mL
solubility at 24 h [1, 20]: 1630 µg/mL
solubility at 24 h [1, 21]: 200 µg/mL
solubility at 24 h [1, 22]: 1100 µg/mL
solubility at 24 h ([1]; solvent Water): 40 µg/mL
IC50 (Tyro3): 10 to 100 nM
IC50 (Axl): ≤ 5 nM
IC50 (c-Mer): ≤ 5 nM
SMILES: CC(C)C(=O)N1CCC(c2cc(-c3ccc(NC(=O)c4cn(C(C)C)c(=O)n(-c5ccccn5)c4=O)cc3)c3c(N)ncnn23)CC1 [Compound I maleate salt, N-(4-(4-Amino-7-(1-isobutyrylpiperidin-4-yl)pyrrolo[1,2-f][1,2,4]triazin-5-yl)phenyl)-1-isopropyl-2,4-dioxo-3-(pyridin-2-yl)-1,2,3,4-tetrahydropyrimidine-5-carboxamide maleate]

IC50 (Tyro3): 10 to 100 nM
IC50 (Axl): ≤ 5 nM
IC50 (c-Mer): ≤ 5 nM
SMILES: CC(C)C(=O)N1CCC(c2cc(-c3ccc(NC(=O)c4cn(C(C)C)c(=O)n(-c5ccccc5)c4=O)cc3)c3c(N)ncnn23)CC1 [Compound II hemi-sulfuric acid salt, N-(4-(4-Amino-7-(1-isobutyrylpiperidin-4-yl)pyrrolo[1,2-f][1,2,4]triazin-5-yl)phenyl)-1-isopropyl-2,4-dioxo-3-phenyl-1,2,3,4-tetrahydropyrimidine-5-carboxamide hemisulfate]
